Test results: PubChem BioAssay AID248 (DTP/NCI, 2004)
Several values for one entry are separate records, joined by “and”; a condition that tells them apart may be missing. Identical values can stand only once. Toxic doses and inconclusive results are not listed. No stated cut-off is given here; in the data, active means T/C of 150% or more; inactive means T/C below 125%.

Test system: L1210 leukemia ip in BDF1 mice, survival T/C
Assay: NCI In Vivo Anticancer Drug Screen. Data for tumor model L1210 Leukemia (intraperitoneal) in B6D2F1 (BDF1) mice
Settings: endpoint: mean survival time, higher = longer survival
How it was run: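 Read-out is survival time, reported as the treated-group measurement over the vehicle-control measurement.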

[1] = dose: 25.0 mg/kg/injection, schedule: Q04DX003 (ip), vehicle: saline
[2] = dose: 100.0 mg/kg/injection, schedule: Q01DX001 (ip), vehicle: saline
[3] = dose: 100.0 mg/kg/injection, schedule: Q04DX002 (ip), vehicle: saline
[4] = dose: 200.0 mg/kg/injection, schedule: Q04DX002 (ip), vehicle: saline
[5] = dose: 100.0 mg/kg/injection, schedule: Q01DX001 (ip), vehicle: carboxymethylcellulose (CMC)
[6] = dose: 200.0 mg/kg/injection, schedule: Q01DX001 (ip), vehicle: carboxymethylcellulose (CMC)
[7] = dose: 400.0 mg/kg/injection, schedule: Q01DX001 (ip), vehicle: carboxymethylcellulose (CMC)
[8] = dose: 100.0 mg/kg/injection, schedule: Q04DX003 (ip), vehicle: saline
[9] = dose: 200.0 mg/kg/injection, schedule: Q04DX003 (ip), vehicle: saline
[10] = dose: 400.0 mg/kg/injection, schedule: Q04DX003 (ip), vehicle: saline
[11] = dose: 100.0 mg/kg/injection, schedule: Q04DX002 (ip), vehicle: saline with Tween-80

Measured: T/C

C=C(Br)CNC(=O)C1CCCCC1
inactive: dose: 3.0 mg/kg/injection, schedule: Q04DX003 (ip), vehicle: Klucel (hydroxypropylcellulose) (HPC) 95 % of control | dose: 6.0 mg/kg/injection, schedule: Q04DX003 (ip), vehicle: Klucel (hydroxypropylcellulose) (HPC) 107 % of control | dose: 6.25 mg/kg/injection, schedule: Q01DX009 (ip), vehicle: Klucel (hydroxypropylcellulose) (HPC) 102 % of control | dose: 12.0 mg/kg/injection, schedule: Q04DX003 (ip), vehicle: Klucel (hydroxypropylcellulose) (HPC) 93 % of control | dose: 12.5 mg/kg/injection, schedule: Q01DX009 (ip), vehicle: Klucel (hydroxypropylcellulose) (HPC) 102 % of control | dose: 25.0 mg/kg/injection, schedule: Q01DX009 (ip), vehicle: Klucel (hydroxypropylcellulose) (HPC) 100 % of control

c1ccc(N2CCNCC2)cc1
inactive: dose: 5.0 mg/kg/injection, schedule: Q01DX001 (ip), vehicle: saline 98 % of control [middle of 5 runs] | dose: 6.25 mg/kg/injection, schedule: Q01DX001 (ip), vehicle: saline 97 % of control | dose: 6.25 mg/kg/injection, schedule: Q04DX003 (ip), vehicle: saline 99 % of control | dose: 10.0 mg/kg/injection, schedule: Q01DX001 (ip), vehicle: saline 102 % of control [middle of 5 runs] | dose: 12.5 mg/kg/injection, schedule: Q01DX001 (ip), vehicle: saline 92 % of control | dose: 12.5 mg/kg/injection, schedule: Q04DX003 (ip), vehicle: saline 99 % of control | dose: 20.0 mg/kg/injection, schedule: Q01DX001 (ip), vehicle: saline 98 % of control [middle of 5 runs] | dose: 25.0 mg/kg/injection, schedule: Q01DX001 (ip), vehicle: saline 97 % of control | [1] 96 % of control | dose: 40.0 mg/kg/injection, schedule: Q01DX001 (ip), vehicle: saline 104 % of control [middle of 5 runs] | dose: 80.0 mg/kg/injection, schedule: Q01DX001 (ip), vehicle: saline 92 % of control and 98 % of control and 115 % of control | [2] 101 % of control

NCCNC12CC3CC(CC(C3)C1)C2
inactive: [3] 113 % of control | [4] 107 % of control

Cc1cn(C2OC(CO)C(O[Si](C)(C)C)C(O[Si](C)(C)C)C2O[Si](C)(C)C)c(=O)[nH]c1=O (stereo unspecified)
inactive: [2] 97 % of control | dose: 200.0 mg/kg/injection, schedule: Q01DX001 (ip), vehicle: saline 94 % of control | dose: 400.0 mg/kg/injection, schedule: Q01DX001 (ip), vehicle: saline 97 % of control

O=C1C=CC(=O)c2[nH]c(-c3ccccc3)cc21
inactive: dose: 12.5 mg/kg/injection, schedule: Q04DX002 (ip), vehicle: Klucel (hydroxypropylcellulose) (HPC) 93 % of control | dose: 25.0 mg/kg/injection, schedule: Q04DX002 (ip), vehicle: Klucel (hydroxypropylcellulose) (HPC) 105 % of control

CCCCCCCNC(C)(C)C(SSSC(c1ccc(Cl)cc1)C(C)(C)NCCCCCCC)c1ccc(Cl)cc1 (stereo unspecified)
inactive: dose: 100.0 mg/kg/injection, schedule: Q04DX003 (ip), vehicle: Klucel (hydroxypropylcellulose) (HPC) 101 % of control | dose: 200.0 mg/kg/injection, schedule: Q04DX003 (ip), vehicle: Klucel (hydroxypropylcellulose) (HPC) 101 % of control | dose: 400.0 mg/kg/injection, schedule: Q04DX003 (ip), vehicle: Klucel (hydroxypropylcellulose) (HPC) 98 % of control

COC(=O)c1ccc(O)c(Cl)c1
inactive: [5] 96 % of control | dose: 100.0 mg/kg/injection, schedule: Q01DX009 (ip), vehicle: carboxymethylcellulose (CMC) 96 % of control | dose: 100.0 mg/kg/injection, schedule: Q04DX002 (ip), vehicle: carboxymethylcellulose (CMC) 103 % of control and 90 % of control | dose: 100.0 mg/kg/injection, schedule: Q04DX003 (ip), vehicle: carboxymethylcellulose (CMC) 97 % of control and 105 % of control | [6] 97 % of control | dose: 200.0 mg/kg/injection, schedule: Q01DX009 (ip), vehicle: carboxymethylcellulose (CMC) 92 % of control | dose: 200.0 mg/kg/injection, schedule: Q04DX002 (ip), vehicle: carboxymethylcellulose (CMC) 105 % of control and 90 % of control | dose: 200.0 mg/kg/injection, schedule: Q04DX003 (ip), vehicle: carboxymethylcellulose (CMC) 100 % of control and 91 % of control | [7] 91 % of control | dose: 400.0 mg/kg/injection, schedule: Q01DX009 (ip), vehicle: carboxymethylcellulose (CMC) 96 % of control | dose: 400.0 mg/kg/injection, schedule: Q04DX002 (ip), vehicle: carboxymethylcellulose (CMC) 97 % of control | dose: 400.0 mg/kg/injection, schedule: Q04DX003 (ip), vehicle: carboxymethylcellulose (CMC) 102 % of control and 103 % of control

BrC12CC3CC(C1)CC(Br)(C3)C2
inactive: dose: 50.0 mg/kg/injection, schedule: Q01DX001 (ip), vehicle: carboxymethylcellulose (CMC) 96 % of control | [5] 93 % of control | [6] 93 % of control | [7] 102 % of control

CO/C([O-])=N/S(=O)(=O)n1cc[n+](C)c1
inactive: dose: 75.0 mg/kg/injection, schedule: Q01DX009 (ip), vehicle: Klucel (hydroxypropylcellulose) (HPC) 98 % of control | dose: 150.0 mg/kg/injection, schedule: Q01DX009 (ip), vehicle: Klucel (hydroxypropylcellulose) (HPC) 86 % of control | dose: 300.0 mg/kg/injection, schedule: Q01DX009 (ip), vehicle: Klucel (hydroxypropylcellulose) (HPC) 95 % of control

CC1CCC(C(C)C)=C(C2CCCCC2)C1 (stereo unspecified)
inactive: [8] 98 % of control | [9] 104 % of control | [10] 87 % of control

Cc1cc(C)c(NC2=NCCS2)cc1C
inactive: [11] 100 % of control

CCCCNC(N)=O
inactive: [3] 101 % of control | [4] 96 % of control | dose: 400.0 mg/kg/injection, schedule: Q04DX002 (ip), vehicle: saline 92 % of control

CCC(C(=O)NC(=O)NOC)c1ccccc1 (stereo unspecified)
inactive: dose: 100.0 mg/kg/injection, schedule: Q01DX Z (ip), vehicle: methylcellulose (MC) 95 % of control | dose: 200.0 mg/kg/injection, schedule: Q01DX Z (ip), vehicle: methylcellulose (MC) 114 % of control | dose: 400.0 mg/kg/injection, schedule: Q01DX Z (ip), vehicle: methylcellulose (MC) 116 % of control

CCN(CC)CCNC(=O)c1ccc2nc(N)sc2c1
inactive: dose: 75.0 mg/kg/injection, schedule: Q01DX001 (ip), vehicle: saline 96 % of control | dose: 150.0 mg/kg/injection, schedule: Q01DX001 (ip), vehicle: saline 91 % of control

CCN(CC)C(=O)C1CN2CCc3cc(OC)c(OC)cc3C2CC1O (stereo unspecified)
inactive: dose: 25.0 mg/kg/injection, schedule: Q01DX009 (ip), vehicle: saline 97 % of control | [1] 108 % of control | dose: 50.0 mg/kg/injection, schedule: Q01DX009 (ip), vehicle: saline 105 % of control | dose: 50.0 mg/kg/injection, schedule: Q04DX003 (ip), vehicle: saline 105 % of control | dose: 100.0 mg/kg/injection, schedule: Q01DX009 (ip), vehicle: saline 103 % of control | [8] 97 % of control | dose: 200.0 mg/kg/injection, schedule: Q01DX009 (ip), vehicle: saline 118 % of control | [9] 110 % of control | dose: 400.0 mg/kg/injection, schedule: Q01DX009 (ip), vehicle: saline 115 % of control | [10] 105 % of control

CC(=O)OCCSCCc1ccccc1
inactive: dose: 62.5 mg/kg/injection, schedule: Q01DX009 (ip), vehicle: saline with Tween-80 97 % of control | dose: 125.0 mg/kg/injection, schedule: Q01DX009 (ip), vehicle: saline with Tween-80 113 % of control | dose: 250.0 mg/kg/injection, schedule: Q01DX009 (ip), vehicle: saline with Tween-80 94 % of control

Fc1ccc(Nc2c3ccccc3nc3ccccc23)cc1
inactive: dose: 25.0 mg/kg/injection, schedule: Q01DX009 (ip), vehicle: saline with Tween-80 92 % of control | dose: 50.0 mg/kg/injection, schedule: Q01DX009 (ip), vehicle: saline with Tween-80 118 % of control | dose: 100.0 mg/kg/injection, schedule: Q01DX009 (ip), vehicle: saline with Tween-80 116 % of control

CC(=O)OCCSC#N
inactive: dose: 12.5 mg/kg/injection, schedule: Q04DX003 (ip), vehicle: saline with Tween-80 98 % of control | dose: 25.0 mg/kg/injection, schedule: Q04DX003 (ip), vehicle: saline with Tween-80 97 % of control

OC(CN1CCCC1)c1cc2cc(Br)ccc2s1 (stereo unspecified)
inactive: [2] 107 % of control

CCCCCCCCCCCOP(=O)(OCC)OCC
inactive: [11] 95 % of control | dose: 200.0 mg/kg/injection, schedule: Q04DX002 (ip), vehicle: saline with Tween-80 95 % of control | dose: 400.0 mg/kg/injection, schedule: Q04DX002 (ip), vehicle: saline with Tween-80 106 % of control
